From patent publication US20260070917A1, “CYCLIN DEPENDENT KINASE DEGRADERS AND METHODS OF USE THEREOF” (Differentiated Therapeutics Inc, priority 2023, published 2026)
Read-outs that look alike come from different tables or passages of the source.

Legend:
Format in all cases: cell-based
[1] = target: T1, CDK2 (Homo sapiens, UniProt P24941); test: HiBit Assay Protocol for CDK2 (HIBIT protein quantification, degradation); settings: HEK293-CDK2-Hibit cells, compound treatment for 6 hours; for DC50: ABS DC50
T1 construct: host or cells: HEK293-CDK2-Hibit
Experimental: HiBit Assay Protocol for CDK2
• 1. The culture medium for HEK293-CDK2-Hibit cells was prepared using DMEM with 10% FBS. • 2. Cells were cultivated in T-75 flasks in a cell culture incubator set at 37° C., 5% CO2, 95% relative humidity. Cells were allowed to reach 80-90% confluence before detaching and splitting. • 3. Cultivated cells were rinsed in T-75 flasks with 5 mL PBS. Aspirate off Added was 1.5 mL trypsin, and the cells were incubated at 37° C. for approximately 5 minutes or until the cells detached and floated. • 4. Trypsin was inactivated by adding excess serum containing medium. • 5. Cells were harvested from flask into cell culture medium and then the cell number was counted. HEK293-CDK2-Hibit cells were seeded into 384-well plate (cell density: 1.6×10^5 cells/well/50 uL medium) in DMEM medium according to the plate map below and incubated overnight at 37° C. and 5% CO2. • Note: Cell Cultured Medium: 90% DMEM+10% FBS+1% Penicillin-Streptomycin Liquid
(§1) • 1. Test compounds were dissolved at 10 mM DMS stock solution. 45 uL of stock solution was transferred to a 384 pp-plate. A 3-fold, 10-point dilution was performed via transferring 15 uL compound into 30 uL DMSO by using TECAN liquid handler. • 2. The plates were spinned at room temperature at 1,000 RPM for 1 minute. • 3. 50 nL of diluted compound was transferred from compound source plate into the cell plate by Echo. • 4. After compound treatment for 6 hours, the plate was removed from incubators and equilibrated at room temperature for 15 minutes. The HiBit reagent was prepared, consisting of the following ratios: 10 mL of Nano-Glo®-HiBiT Lytic Buffer, 200 μL of Nano-Glo®-HiBiT Lytic Substrate and 100 uL of LgBiT Protein, mixed thoroughly. 20 μL of HiBit reagent was added into each well and the plates were spinned at room temperature at 1,000 RPM for 1 minute to be detected. Then the plates were shaken at 600 RPM at room temperature for 20 minutes, and read by EnVision. • 5. The inhibition activity was calculated following the formula below:
(§2) [formula] • Note: Where HC is obtained from cells treated with […] only; LC is obtained from culture medium only. • 6. ABS DC50 was calculated by fitting the Curve using Xlfit (v5.3.1.3), equation 201: […]

[2] = target: T2, CDK9 (Homo sapiens, UniProt P50750); test: HiBit Assay Protocol for CDK9 (HIBIT protein quantification, degradation); settings: HEK293-CDK9-Hibit cells, compound treatment for 6 hours, read-out: CDK9 HIBIT Protein Quantification Maximum
T2 construct: host or cells: HEK293-CDK9-Hibit
T2 sequence (P50750 whole entry): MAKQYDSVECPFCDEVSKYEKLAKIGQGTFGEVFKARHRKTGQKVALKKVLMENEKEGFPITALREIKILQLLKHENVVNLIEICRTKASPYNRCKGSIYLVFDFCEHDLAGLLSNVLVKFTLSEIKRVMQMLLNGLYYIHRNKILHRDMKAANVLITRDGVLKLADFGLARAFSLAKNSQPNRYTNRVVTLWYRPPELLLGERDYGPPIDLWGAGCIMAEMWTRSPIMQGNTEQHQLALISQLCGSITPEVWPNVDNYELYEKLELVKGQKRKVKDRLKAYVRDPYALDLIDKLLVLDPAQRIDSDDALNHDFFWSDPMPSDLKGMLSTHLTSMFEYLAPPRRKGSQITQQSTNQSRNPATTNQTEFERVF
Experimental: HiBit Assay Protocol for CDK9
• 1. The culture medium for HEK293-CDK9-Hibit cell was prepared using DMEM with 10% FBS. • 2. Cells were cultivated in T-75 flasks in a cell culture incubator set at 37° C., 5% CO2, 95% relative humidity. Cells were allowed to reach 80-90% confluence before detaching and splitting. • 3. Cultivated cells were rinsed in T-75 flasks with 5 mL PBS. Aspirated off. Added 1.5 mL trypsin, and incubated the cells at 37° C. for approximately 5 minutes or until the cells detached and floated. • 4. Trypsin was inactivated by adding excess serum containing medium. • 5. Cells were harvested from flask into cell culture medium and then the cell number was counted. HEK293-CDK9-Hibit cells were seeded into 384-well plate (cell density: 1.6×10^5 cells/well/50 uL medium) in DMEM medium according to the plate map below and were incubated overnight at 37° C. and 5% CO2. • Note: Cell Cultured Medium: 90% DMEM+10% FBS+1% Penicillin-Streptomycin Liquid
• 1. Test compounds were dissolved at 3 mM DMSO stock solution. Transferred 45 uL of stock solution to a 384 pp-plate. Perform 3-fold, 10-point dilution via transferring 15 uL compound into 30 uL DMSO by using TECAN liquid handler. • 2. The plates were spinned at room temperature at 1,000 RPM for 1 minute. • 3. Transferred 50 nL of diluted compound from compound source plate into the cell plate by Echo. • 4. After compound treatment for 6 hours, removed the plate from incubators and equilibrated at room temperature for 15 minutes. Prepared the HiBit reagent consists of the following ratios: 10 mL of Nano-Glo®-HiBiT Lytic Buffer, 200 uL of Nano-Glo®-HiBiT Lytic Substrate and 100 uL of LgBiT Protein, mixed thoroughly. Added 20 uL of HiBit reagent into each well and spinned the plates at room temperature at 1,000 RPM for 1 minute to be detected. Plates were then shaken at 600 RPM at room temperature for 20 minutes, and read by EnVision. • 5. The inhibition activity was calculated following the formula below:
[formula] • Note: Where HC was obtained from cells treated with 0.1% DMSO only; LC was obtained from culture medium only. • 6. The ABS DC50 was calculated by fitting the Curve using Xlfit (v5.3.1.3), equation 201: […]

[3] = target: T3, CCNE1 (Homo sapiens, UniProt P24864); test: HiBit Assay Protocol for CCNE1 (HIBIT protein quantification, degradation); settings: HEK293-CCNE1-Hibit cells, compound treatment for 6 hours
T3 construct: host or cells: HEK293-CCNE1-Hibit
T3 sequence (P24864 whole entry): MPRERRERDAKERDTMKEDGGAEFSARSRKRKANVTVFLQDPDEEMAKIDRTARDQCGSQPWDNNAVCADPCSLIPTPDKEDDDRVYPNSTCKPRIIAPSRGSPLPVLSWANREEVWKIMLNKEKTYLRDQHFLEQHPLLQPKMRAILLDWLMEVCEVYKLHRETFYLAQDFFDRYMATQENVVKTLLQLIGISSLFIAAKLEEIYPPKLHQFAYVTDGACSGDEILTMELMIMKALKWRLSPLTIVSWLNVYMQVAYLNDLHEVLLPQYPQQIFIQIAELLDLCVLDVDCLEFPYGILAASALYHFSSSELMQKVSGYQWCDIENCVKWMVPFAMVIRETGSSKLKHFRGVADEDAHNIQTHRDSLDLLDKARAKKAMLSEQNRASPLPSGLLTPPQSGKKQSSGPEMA
Experimental: HiBit Assay Protocol for CCNE1
• 1. The culture medium for HEK293-CCNE1-Hibit cell was prepared using EMEM with […]. • 2. Cells were cultivated in T-75 flasks in a cell culture incubator set at 37° C., 5% CO2, 95% relative humidity. Cells were allowed to reach 80-90% confluence before detaching and splitting. • 3. Cultivated cells were rinsed in T-75 flasks with 5 mL PBS. Aspirate off Added was 1.5 mL trypsin, and the cells were incubated at 37° C. for approximately 5 minutes or until the cells detached and floated. • 4. Trypsin was inactivated by adding excess serum containing medium. • 5. Cells were harvested from flask into cell culture medium and then the cell number was counted. HEK293-CCNE1-Hibit cell were seeded into 384-well plate (cell density: 1.6×10^5 cells/well/50 uL medium) in EMEM medium according to the plate map below and incubated overnight at 37° C. and […]. • Note: Cell Cultured Medium: 90% EMEM+10% FBS+1% Penicillin-Streptomycin Liquid
as §1, with “mM DMSO” for “mM DMS”, “45 μL” for “45 uL”, “100 μL” for “100 uL”, “Protein, mix” for “Protein, mixed”
as §2

| SMILES | CDK2 HIBIT Protein Quantification Maximum [1] | DC50 [1] | Dmax ([2]; 6 h) | CCNE1 HIBIT Protein Quantification Maximum [3] | Dmax [2] |
| --- | --- | --- | --- | --- | --- |
| CC1CCCC1N1C(=O)C2(CC2)c2cnc(NC3CCN(S(=O)(=O)N4CCC5(CCN(C(=O)CCCc6cccc7c6n(C)c(=O)n7C6CCC(=O)NC6=O)C5)C4)CC3)nc21 (stereo not drawn) [Compound 32] | 59% | 86 nM | 41% | 22% |  |
| CC1CCCC1N1C(=O)C2(CC2)c2cnc(NC3CCN(S(=O)(=O)N4CCC5(CCN(C(=O)CCc6ccc7c(c6)n(C)c(=O)n7C6CCC(=O)NC6=O)C5)C4)CC3)nc21 (stereo not drawn) [Compound 60] | 18% |  | 28% | 17% |  |
| CC1CCCC1N1C(=O)C2(CC2)c2cnc(NC3CCN(S(=O)(=O)N4CCC5(CCN(C(=O)CCCCc6ccc7c(c6)n(C)c(=O)n7C6CCC(=O)NC6=O)C5)C4)CC3)nc21 (stereo not drawn) [Compound 112] | 22% |  | 28% | 14% |  |
| CC1CCCC1N1C(=O)C2(CC2)c2cnc(NC3CCN(S(=O)(=O)N4CC5(CCN(C(=O)CCCc6ccc7c(c6)n(C)c(=O)n7C6CCC(=O)NC6=O)CC5)C4)CC3)nc21 (stereo not drawn) [Compound 68] | 38% |  | 6% | 9% |  |
| CC1CCCC1N1C(=O)C2(CC2)c2cnc(NC3CCN(S(=O)(=O)N4CC5(CCCN(C(=O)CCCc6cccc7c6n(C)c(=O)n7C6CCC(=O)NC6=O)C5)C4)CC3)nc21 (stereo not drawn) [Compound 28] | 42% |  | 8% | 8% |  |
| O=C1CCC(N2Cc3cc(N4CC5(CN(Cc6cccc(S(=O)(=O)N7CCC(Nc8ncc9c(n8)N([C@@H]8CCC[C@@H](O)C8)C(=O)C98CC8)CC7)c6)C5)C4)ccc3C2=O)C(=O)N1 (stereo partly drawn) [Compound 120] | 62% | 23 nM | 25% | 23% |  |
| Cn1c(=O)n(C2CCC(=O)NC2=O)c2ccc(C3CCN(Cc4cccc(S(=O)(=O)N5CCC(Nc6ncc7c(n6)N([C@@H]6CCC[C@@H](O)C6)C(=O)C76CC6)CC5)c4)CC3)cc21 (stereo partly drawn) [Compound 147, 3-[5-(1-{[3-(4-{7′-[(1R,3R)-3-Hydroxycyclohexyl]-6′-oxospiro[cyclopropane-1,5′-pyrrolo[2,3-d]pyrimidin]-2′-ylamino}piperidin-1-ylsulfonyl)phenyl]methyl}piperidin-4-yl)-3-methyl-2-oxo-1,3-benzodiazol-1-yl]piperidine-2,6-dione] | 64% | 11 nM |  | 13% | 2% |
| C[C@H](c1cccc(S(=O)(=O)N2CC[C@H](Nc3ncc4c(n3)N([C@@H]3CCC[C@@H](O)C3)C(=O)C43CC3)[C@H](F)C2)c1)N1CCN(c2ccc3c(N4CCC(=O)NC4=O)nn(C)c3c2)[C@H](C)C1 [Compound 208] | 91% | 4.62 nM | 14% | 45% |  |
| CC1CCCC1N1C(=O)C2(CC2)c2cnc(NC3CCN(S(=O)(=O)N4CC5(CCN(C(=O)Cc6ccc7c(c6)n(C)c(=O)n7C6CCC(=O)NC6=O)CC5)C4)CC3)nc21 (stereo not drawn) [Compound 54] | 14% |  | 4% |  |  |
| CC1CCCC1N1C(=O)C2(CC2)c2cnc(NC3CCN(S(=O)(=O)C4CCCN(C(=O)CCCCc5ccc6c(c5)n(C)c(=O)n6C5CCC(=O)NC5=O)C4)CC3)nc21 (stereo not drawn) [Compound 115] | 23% |  | 7% |  |  |
| CC1CCCC1N1C(=O)C2(CC2)c2cnc(NC3CCN(S(=O)(=O)N4CC5C4CCN5C(=O)CCCCc4cccc5c4n(C)c(=O)n5C4CCC(=O)NC4=O)CC3)nc21 (stereo not drawn) [Compound 98] | 31% |  | 15% |  |  |
| CC1CCCC1N1C(=O)C2(CC2)c2cnc(NC3CCN(S(=O)(=O)N4CCC(CN5CCC(c6cccc7c6n(C)c(=O)n7C6CCC(=O)NC6=O)CC5)CC4)CC3)nc21 (stereo not drawn) [Compound 14, 3-(3-Methyl-4-{1-[(1-{4-[7′-(2-methylcyclopentyl)-6′-oxospiro[cyclopropane-1,5′-pyrrolo[2,3-d]pyrimidin]-2′-ylamino]piperidin-1-ylsulfonyl}piperidin-4-yl)methyl]piperidin-4-yl}-2-oxo-1,3-benzodiazol-1-yl)piperidine-2,6-dione] | 57.4% | 4.56 nM |  | 37.7% |  |
| CC1CCCC1N1C(=O)C2(CC2)c2cnc(NC3CCN(S(=O)(=O)C4CCN(C(=O)CCCCc5cccc6c5n(C)c(=O)n6C5CCC(=O)NC5=O)C4)CC3)nc21 (stereo not drawn) [Compound 11] | 49.5% |  |  | 23.6% |  |
